Data set [1] concerns SARS-CoV2. Put plainly: Virucidal activity / neutralising viral toxicity in Vero-E6 cell assay in the dark (Cagno et al 2020 data). The class given is cell-based.
On the set-up of data set [2]: species or system rats. Particulars: rat, in vivo, po, 10 mg/kg. Here is the method:
A further whole body autoradiography study rats compared the distribution of LMT-associated radioactivity in brain, lung and heart following oral dosing at 10 mg/kg. […] The ratio specific for LMT in lung is therefore unknown. It is possible to relate plasma levels determined in a large clinical population (Schelter et al., 2019) to expected tissue levels of LMT at steady state across a wide dosing range of 8-250 mg/day. However, this depends critically on the tissue:plasma ratio for specifically affected tissues such a lung.

Data set [3] is described as follows: Oxygen saturation and metHb in clinical trial patients after LMT dosing. The class given is in vivo, human. Here is the method: The present inventors have used data available for patients participating in clinical trials to determine whether LMT enhances oxygen saturation of blood. Data were available for 18 subjects with oxygen saturation <94% at baseline (lower limit of normal range is 95%). Oxygen saturation levels were compared pre-dose and after 4 hrs in the clinic following administration of a single doses of LMT at 4 mg and ˜100mg (mean of 75, 100, 125 mg; FIG. 8).
In order to understand this effect further the inventors investigated whether the low oxygen saturation in these patients is due to elevation in metHb levels. There was no difference in metHb levels at baseline between subjects with low SpO2 and those with SpO2 levels in the normal range.

A short description of data set [4]: Clinical safety / cardiotoxicity of LMTM. Type of data set: in vivo, human. Here is the method:
Therefore, doses up to 250 mg/day could be given safely for treatment of COVID-19 patients.

For data set [5] the following is noted: AD patients; cited from earlier work.
Data set [6] has as its system mitochondrial function. Particulars: in vitro and in vivo; cited from earlier work.
The test system of data set [7] is SARS-CoV-2. Particulars: Vero cells, 48 hrs; read-out: IC50, SARS-CoV-2 antiviral activity (viral replication); cited from earlier work.

For `CN(C)c1ccc2c(c1)Sc1cc(N(C)C)ccc1N2` [LMT, hydromethylthionine], the “potency as SARS-CoV-2 antiviral relative to hydroxychloroquine and remdesivir” value in data set [1] (assuming comparability of the assays) was “approximately 23 fold”. Moreover, the “ratio of heart and lung to brain (LMT-associated radioactivity, total MT)” value in data set [2] is 2:1.

As for `CN(C)c1ccc2c(c1)Sc1cc(N(C)C)ccc1N2.CS(=O)(=O)O.CS(=O)(=O)O` [LMTM, N,N,N′,N′-tetramethyl-10H-phenothiazine-3,7-diaminium bis(hydromethanesulfonate)], the metHb levels result in data set [3] (higher doses, over a period of time) was “systematically increases metHb levels”. The “oxygen saturation of blood” value in data set [3] (subjects with oxygen saturation <94% at baseline, 4 hours after single dose of LMT at 4 mg and ~100 mg) is “significantly increased oxygen saturation”. The safety across doses entry in data set [4] (8-250 mg/day, three Phase 3 trials in over 2,000 patients with dementia) is “well established”. In addition, the cardiotoxicity result in data set [4] (human, in vivo) is listed as “does not have the cardiotoxicity”. Also, in data set [5], the “minimum effective dose (anti-dementia effects)” value is given as 8 mg/day and the “optimally effective dose (anti-dementia effects)” value was 16 mg/day. Further, the mitochondrial function result in data set [6] is “enhance mitochondrial function”.

As to `CCN(CCO)CCCC(C)Nc1ccnc2cc(Cl)ccc12` (centres unmarked) [hydroxychloroquine], the IC50 – broadly, the midpoint of a concentration-inhibition curve – in data set [7] was 720 nM.

Consider methylthionine [MT moiety], for which, in data set [1] (Vero cell assay, 20 hrs, calculated from Cagno et al. data), the IC50 is 32 nM.

These data come from patent US20230165875A1, “METHYLTHIONINIUM COMPOUNDS FOR USE IN THE TREATMENT OF COVID-19” (priority 2020, published 2023).
